Reference: PMC6199744, “Development of Chemical Proteomics for the Folateome and Analysis of the Kinetoplastid Folateome” (ACS Infectious Diseases, 2018)
Read-outs that look alike come from different tables or passages of the source.

How the values were obtained:
Assay type in all cases: binding
[1] = target: T1, HeLa cell extract proteins (Homo sapiens, UniProt P22102)
T1 construct: endogenous in cells; host or cells: HeLa cell extract
T1 sequence (P22102 1-1010): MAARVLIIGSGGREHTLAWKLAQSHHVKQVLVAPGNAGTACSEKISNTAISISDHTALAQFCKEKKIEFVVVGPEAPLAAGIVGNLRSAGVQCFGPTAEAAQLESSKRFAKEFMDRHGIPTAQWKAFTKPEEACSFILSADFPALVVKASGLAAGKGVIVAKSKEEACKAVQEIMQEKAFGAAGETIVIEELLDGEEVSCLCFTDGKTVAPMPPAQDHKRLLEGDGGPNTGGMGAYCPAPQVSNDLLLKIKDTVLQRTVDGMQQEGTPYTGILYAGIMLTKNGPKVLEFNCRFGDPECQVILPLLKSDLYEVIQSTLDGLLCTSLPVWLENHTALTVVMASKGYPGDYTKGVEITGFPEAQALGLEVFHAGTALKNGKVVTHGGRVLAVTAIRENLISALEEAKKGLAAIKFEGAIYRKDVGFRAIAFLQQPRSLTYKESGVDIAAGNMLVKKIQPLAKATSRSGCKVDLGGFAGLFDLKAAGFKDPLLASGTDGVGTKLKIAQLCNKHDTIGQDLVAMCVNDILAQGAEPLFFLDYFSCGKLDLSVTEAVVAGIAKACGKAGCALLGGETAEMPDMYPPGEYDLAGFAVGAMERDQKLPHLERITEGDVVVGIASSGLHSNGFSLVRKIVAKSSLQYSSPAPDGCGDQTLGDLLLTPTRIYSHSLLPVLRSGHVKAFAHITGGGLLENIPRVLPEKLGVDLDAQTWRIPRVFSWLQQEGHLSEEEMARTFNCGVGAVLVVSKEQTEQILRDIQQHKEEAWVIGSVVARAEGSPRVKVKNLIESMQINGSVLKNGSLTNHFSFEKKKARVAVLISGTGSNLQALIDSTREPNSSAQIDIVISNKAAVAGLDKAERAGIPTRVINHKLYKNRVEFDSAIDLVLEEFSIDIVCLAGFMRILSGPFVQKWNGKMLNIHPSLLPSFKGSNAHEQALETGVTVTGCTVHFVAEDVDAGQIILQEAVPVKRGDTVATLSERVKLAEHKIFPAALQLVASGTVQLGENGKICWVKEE

[2] = target: T2, HeLa cell extract proteins (Homo sapiens, UniProt P35579)
T2 construct: endogenous in cells; host or cells: HeLa cell extract
T2 sequence (P35579 whole entry): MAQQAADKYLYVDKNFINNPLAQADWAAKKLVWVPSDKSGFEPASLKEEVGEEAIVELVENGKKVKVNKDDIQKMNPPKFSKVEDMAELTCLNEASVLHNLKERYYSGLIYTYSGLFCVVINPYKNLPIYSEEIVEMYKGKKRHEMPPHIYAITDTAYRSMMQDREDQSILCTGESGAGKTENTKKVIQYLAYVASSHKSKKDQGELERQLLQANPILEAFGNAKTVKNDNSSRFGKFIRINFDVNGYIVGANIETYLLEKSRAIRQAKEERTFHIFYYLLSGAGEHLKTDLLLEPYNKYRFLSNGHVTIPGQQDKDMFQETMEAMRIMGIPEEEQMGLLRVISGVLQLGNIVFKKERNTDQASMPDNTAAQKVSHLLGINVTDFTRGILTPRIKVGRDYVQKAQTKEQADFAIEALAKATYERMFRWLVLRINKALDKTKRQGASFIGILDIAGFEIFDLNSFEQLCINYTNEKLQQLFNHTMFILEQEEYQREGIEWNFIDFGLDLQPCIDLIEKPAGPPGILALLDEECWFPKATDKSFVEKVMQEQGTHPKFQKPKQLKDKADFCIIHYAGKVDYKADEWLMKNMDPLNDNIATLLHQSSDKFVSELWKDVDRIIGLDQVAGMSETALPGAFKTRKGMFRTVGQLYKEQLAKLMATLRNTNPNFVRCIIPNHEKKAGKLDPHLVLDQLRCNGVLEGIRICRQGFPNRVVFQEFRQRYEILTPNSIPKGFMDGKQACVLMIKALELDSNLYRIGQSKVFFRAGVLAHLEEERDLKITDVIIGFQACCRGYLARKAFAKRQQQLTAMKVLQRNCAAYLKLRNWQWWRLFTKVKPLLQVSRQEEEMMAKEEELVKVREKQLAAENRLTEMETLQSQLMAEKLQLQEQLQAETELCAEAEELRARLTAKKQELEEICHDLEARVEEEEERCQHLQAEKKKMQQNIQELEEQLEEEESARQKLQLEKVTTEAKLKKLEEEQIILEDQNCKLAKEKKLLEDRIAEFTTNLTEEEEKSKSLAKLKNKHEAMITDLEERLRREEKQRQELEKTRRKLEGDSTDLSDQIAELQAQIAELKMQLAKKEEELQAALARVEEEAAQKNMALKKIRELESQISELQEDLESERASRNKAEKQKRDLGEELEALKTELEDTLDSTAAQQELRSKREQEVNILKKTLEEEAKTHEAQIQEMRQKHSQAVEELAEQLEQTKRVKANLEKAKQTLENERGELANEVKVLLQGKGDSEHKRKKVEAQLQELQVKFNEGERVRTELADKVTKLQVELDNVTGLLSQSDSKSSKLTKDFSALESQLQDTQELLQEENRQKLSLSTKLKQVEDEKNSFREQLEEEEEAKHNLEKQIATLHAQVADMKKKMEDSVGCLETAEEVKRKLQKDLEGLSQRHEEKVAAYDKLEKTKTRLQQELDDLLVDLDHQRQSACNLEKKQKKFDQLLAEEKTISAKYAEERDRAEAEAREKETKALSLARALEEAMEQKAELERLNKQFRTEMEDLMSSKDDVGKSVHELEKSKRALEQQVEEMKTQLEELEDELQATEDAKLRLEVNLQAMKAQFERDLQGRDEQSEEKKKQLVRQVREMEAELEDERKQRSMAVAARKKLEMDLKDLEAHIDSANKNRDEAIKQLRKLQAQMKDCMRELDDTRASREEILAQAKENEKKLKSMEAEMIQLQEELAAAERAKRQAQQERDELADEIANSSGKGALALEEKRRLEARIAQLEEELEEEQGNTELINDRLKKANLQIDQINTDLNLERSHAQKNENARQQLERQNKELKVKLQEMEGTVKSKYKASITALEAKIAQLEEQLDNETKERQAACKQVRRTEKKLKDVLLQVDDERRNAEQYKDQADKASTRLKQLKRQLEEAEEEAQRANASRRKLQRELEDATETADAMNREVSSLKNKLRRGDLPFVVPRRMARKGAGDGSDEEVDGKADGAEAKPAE

[3] = target: T3, HeLa cell extract proteins (Homo sapiens, UniProt P62979)
T3 construct: endogenous in cells; host or cells: HeLa cell extract

[4] = target: T4, HeLa cell extract proteins (Homo sapiens, UniProt P43686)
T4 construct: endogenous in cells; host or cells: HeLa cell extract
T4 sequence (P43686 whole entry): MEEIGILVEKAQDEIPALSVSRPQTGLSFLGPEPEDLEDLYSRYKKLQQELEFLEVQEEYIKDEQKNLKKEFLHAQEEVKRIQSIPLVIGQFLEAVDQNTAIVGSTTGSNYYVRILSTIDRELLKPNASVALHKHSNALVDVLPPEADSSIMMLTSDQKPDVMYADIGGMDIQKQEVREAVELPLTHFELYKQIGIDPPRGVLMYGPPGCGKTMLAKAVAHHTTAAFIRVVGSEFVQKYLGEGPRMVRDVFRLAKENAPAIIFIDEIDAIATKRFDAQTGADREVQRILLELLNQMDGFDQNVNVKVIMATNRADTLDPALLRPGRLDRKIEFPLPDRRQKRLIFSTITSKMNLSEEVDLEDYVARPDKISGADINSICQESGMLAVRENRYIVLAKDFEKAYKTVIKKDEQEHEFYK

[5] = target: T5, HeLa cell extract proteins (Homo sapiens, UniProt Q96BY9)
T5 construct: endogenous in cells; host or cells: HeLa cell extract
T5 sequence (Q96BY9 31-339): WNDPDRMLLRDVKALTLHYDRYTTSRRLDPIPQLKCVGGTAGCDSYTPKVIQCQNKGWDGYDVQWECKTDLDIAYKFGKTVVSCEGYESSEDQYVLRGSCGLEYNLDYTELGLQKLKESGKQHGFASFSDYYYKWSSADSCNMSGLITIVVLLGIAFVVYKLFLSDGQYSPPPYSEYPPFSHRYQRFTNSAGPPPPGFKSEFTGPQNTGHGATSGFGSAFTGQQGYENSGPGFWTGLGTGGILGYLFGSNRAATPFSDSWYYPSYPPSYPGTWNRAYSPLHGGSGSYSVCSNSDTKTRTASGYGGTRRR

[6] = target: T6, HeLa cell extract proteins (Homo sapiens, UniProt P81605)
T6 construct: endogenous in cells; host or cells: HeLa cell extract
T6 sequence (P81605 20-110): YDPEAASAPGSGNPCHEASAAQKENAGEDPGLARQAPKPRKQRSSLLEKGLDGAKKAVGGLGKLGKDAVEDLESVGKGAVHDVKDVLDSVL

[7] = target: T7, HeLa cell extract proteins (Homo sapiens, UniProt Q9UKU7)
T7 construct: endogenous in cells; host or cells: HeLa cell extract
T7 sequence (Q9UKU7 23-415): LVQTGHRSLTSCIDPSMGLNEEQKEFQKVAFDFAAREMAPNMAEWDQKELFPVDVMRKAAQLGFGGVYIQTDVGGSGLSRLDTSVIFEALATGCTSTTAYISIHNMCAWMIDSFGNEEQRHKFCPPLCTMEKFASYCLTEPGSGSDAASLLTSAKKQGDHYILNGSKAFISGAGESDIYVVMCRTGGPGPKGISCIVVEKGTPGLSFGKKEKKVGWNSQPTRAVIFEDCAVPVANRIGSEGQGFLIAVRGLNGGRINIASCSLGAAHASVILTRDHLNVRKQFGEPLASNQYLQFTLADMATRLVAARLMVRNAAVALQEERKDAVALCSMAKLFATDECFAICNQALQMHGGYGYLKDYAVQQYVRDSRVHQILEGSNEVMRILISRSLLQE

[8] = target: T8, HeLa cell extract proteins (Homo sapiens, UniProt Q92945)
T8 construct: endogenous in cells; host or cells: HeLa cell extract
T8 sequence (Q92945 1-711): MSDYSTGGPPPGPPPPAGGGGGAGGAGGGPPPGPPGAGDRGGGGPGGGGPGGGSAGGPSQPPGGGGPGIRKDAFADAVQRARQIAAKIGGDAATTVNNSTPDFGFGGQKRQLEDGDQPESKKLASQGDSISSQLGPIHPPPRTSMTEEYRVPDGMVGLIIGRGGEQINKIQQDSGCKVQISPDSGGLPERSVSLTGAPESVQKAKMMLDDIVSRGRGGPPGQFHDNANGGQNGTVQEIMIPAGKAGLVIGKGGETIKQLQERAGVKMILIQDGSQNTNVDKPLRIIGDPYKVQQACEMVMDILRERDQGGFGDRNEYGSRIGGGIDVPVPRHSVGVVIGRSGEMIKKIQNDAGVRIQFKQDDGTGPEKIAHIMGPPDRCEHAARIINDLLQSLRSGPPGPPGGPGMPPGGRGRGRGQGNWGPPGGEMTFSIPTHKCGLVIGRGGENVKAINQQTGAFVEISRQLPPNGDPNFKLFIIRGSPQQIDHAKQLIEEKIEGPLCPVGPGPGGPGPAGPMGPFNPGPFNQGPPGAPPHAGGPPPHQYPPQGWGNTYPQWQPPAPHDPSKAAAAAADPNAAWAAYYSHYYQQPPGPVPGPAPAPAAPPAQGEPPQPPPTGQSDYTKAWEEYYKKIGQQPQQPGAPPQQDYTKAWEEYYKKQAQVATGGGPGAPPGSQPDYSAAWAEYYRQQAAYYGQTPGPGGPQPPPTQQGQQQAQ

[9] = target: T9, HeLa cell extract proteins (Homo sapiens, UniProt Q13200)
T9 construct: endogenous in cells; host or cells: HeLa cell extract
T9 sequence (Q13200 whole entry): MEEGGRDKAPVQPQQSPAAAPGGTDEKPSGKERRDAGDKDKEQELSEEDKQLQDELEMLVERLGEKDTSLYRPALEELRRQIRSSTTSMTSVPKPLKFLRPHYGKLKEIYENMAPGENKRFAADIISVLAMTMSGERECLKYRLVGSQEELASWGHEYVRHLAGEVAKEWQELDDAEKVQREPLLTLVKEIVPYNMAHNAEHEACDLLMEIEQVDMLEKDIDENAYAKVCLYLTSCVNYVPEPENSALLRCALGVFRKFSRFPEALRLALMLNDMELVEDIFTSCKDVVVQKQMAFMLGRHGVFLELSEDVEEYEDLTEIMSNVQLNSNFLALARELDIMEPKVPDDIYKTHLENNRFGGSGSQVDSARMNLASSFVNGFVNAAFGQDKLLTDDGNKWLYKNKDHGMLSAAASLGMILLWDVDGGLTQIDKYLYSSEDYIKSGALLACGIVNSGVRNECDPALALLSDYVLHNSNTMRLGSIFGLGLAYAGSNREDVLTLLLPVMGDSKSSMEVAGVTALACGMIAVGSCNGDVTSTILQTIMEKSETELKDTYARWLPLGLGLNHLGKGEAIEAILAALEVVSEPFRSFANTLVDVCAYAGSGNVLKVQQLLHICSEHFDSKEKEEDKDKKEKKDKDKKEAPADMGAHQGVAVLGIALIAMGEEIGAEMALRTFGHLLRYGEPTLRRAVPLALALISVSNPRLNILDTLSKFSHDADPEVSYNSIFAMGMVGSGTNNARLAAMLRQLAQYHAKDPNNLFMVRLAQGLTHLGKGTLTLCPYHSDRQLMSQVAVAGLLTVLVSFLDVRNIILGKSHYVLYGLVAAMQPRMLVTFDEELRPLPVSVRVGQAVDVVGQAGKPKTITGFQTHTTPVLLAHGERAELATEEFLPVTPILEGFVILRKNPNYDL

[10] = HeLa, protein TMEM66 (TRANSMEMBRANE PROTEIN 66 PRECURSOR)

Compound: Nc1nc2c(c(=O)[nH]1)N(C=O)C(CNc1ccc(C(=O)N[C@@H](CCC(=O)O)C(=O)O)cc1)CN2 (stereo partly drawn) [LEU, leucovorin]
- fold changes relative to vehicle control ([1]; protein GART, HeLa): 0.66
- fold changes relative to vehicle control ([2]; HeLa, protein MYH9 (MYOSIN-9)): 0.97
- fold changes relative to vehicle control [3]: 1.29
- fold changes relative to vehicle control ([4]; protein PSMC4, HeLa): 0.97
- fold changes relative to vehicle control ([5]; HeLa, protein TMEM66 (TRA[…] 66 PRECURSOR)): 1.06
- fold changes relative to vehicle control ([6]; protein DCD, HeLa): 0.78
- fold changes relative to vehicle control ([7]; HeLa, protein ACAD8): 0.79
- fold changes relative to vehicle control ([8]; HeLa, protein KHSRP): 0.9
- fold changes relative to vehicle control ([9]; protein PSMD2, HeLa): 0.84

Compound: Nc1nc2[nH]cc(CCc3ccc(C(=O)N[C@@H](CCC(=O)O)C(=O)O)cc3)c2c(=O)[nH]1 [PTX, pemetrexed]
- fold changes relative to vehicle control [1]: 0.43
- fold changes relative to vehicle control [2]: 0.99
- fold changes relative to vehicle control [3]: 1.29
- fold changes relative to vehicle control [4]: 1.01
- fold changes relative to vehicle control [5]: 0.92
- fold changes relative to vehicle control [6]: 1.53
- fold changes relative to vehicle control [7]: 0.83
- fold changes relative to vehicle control [8]: 0.97
- fold changes relative to vehicle control [9]: 0.83

Compound: CCCCCCOc1ccc(Cc2cnc(N)nc2N)cc1 [compound 1]
- fold changes relative to vehicle control ([1]; captured protein GART, HeLa): 0.94
- fold changes relative to vehicle control ([2]; captured protein MYH9, HeLa): 0.91
- fold changes relative to vehicle control ([3]; protein RPS27A, HeLa): 1.24
- fold changes relative to vehicle control ([4]; protein PSMC4, HeLa): 1.13
- fold changes relative to vehicle control ([5]; protein TMEM66, HeLa): 1.16
- fold changes relative to vehicle control ([6]; protein DCD, HeLa): 9.15
- fold changes relative to vehicle control ([7]; protein ACAD8, HeLa): 1.11
- fold changes relative to vehicle control ([8]; captured protein KHSRP, HeLa): 0.74
- fold changes relative to vehicle control ([9]; protein PSMD2, HeLa): 0.98

Compound: CCCCCCOc1cccc(Cc2cnc(N)nc2N)c1 [compound 2]
- fold changes relative to vehicle control ([1]; captured protein GART, HeLa): 1.03
- fold changes relative to vehicle control ([2]; captured protein MYH9, HeLa): 1.23
- fold changes relative to vehicle control ([3]; protein RPS27A, HeLa): 1.5
- fold changes relative to vehicle control ([4]; protein PSMC4, HeLa): 1.33
- fold changes relative to vehicle control ([5]; protein TMEM66, HeLa): 1.29
- fold changes relative to vehicle control ([6]; protein DCD, HeLa): 1.52
- fold changes relative to vehicle control ([7]; protein ACAD8, HeLa): 1.19
- fold changes relative to vehicle control ([8]; captured protein KHSRP, HeLa): 0.96
- fold changes relative to vehicle control ([9]; protein PSMD2, HeLa): 1.41

Compound: Nc1nc2cccc(-c3ccccc3)c2n1Cc1ccc(Cl)c(Cl)c1 [compound 3]
- fold changes relative to vehicle control ([1]; captured protein GART, HeLa): 1.1
- fold changes relative to vehicle control ([2]; captured protein MYH9, HeLa): 0.85
- fold changes relative to vehicle control ([3]; protein RPS27A, HeLa): 1.01
- fold changes relative to vehicle control ([4]; protein PSMC4, HeLa): 1.04
- fold changes relative to vehicle control ([5]; protein TMEM66, HeLa): 0.98
- fold changes relative to vehicle control ([6]; protein DCD, HeLa): 1.26
- fold changes relative to vehicle control ([7]; protein ACAD8, HeLa): 1.13
- fold changes relative to vehicle control ([8]; captured protein KHSRP, HeLa): 0.84
- fold changes relative to vehicle control ([9]; protein PSMD2, HeLa): 1.01

Compound: NCCOCCOCC(=O)Nc1nc2ncc(CNc3ccc(C(=O)NC(CCC(=O)O)C(=O)O)cc3)nc2c(=O)[nH]1 (stereo not drawn) [compound 6]
- fold changes relative to vehicle control ([1]; protein GART, HeLa): 0.72
- fold changes relative to vehicle control ([2]; HeLa, protein MYH9 (MYOSIN-9)): 1.44
- fold changes relative to vehicle control ([3]; HeLa, protein RPS27A (UBIQUITIN AND RIBOSOMAL PROTEIN S27A PRECURSOR)): 1.51
- fold changes relative to vehicle control ([4]; protein PSMC4, HeLa): 1.13
- fold changes relative to vehicle control [5, 10]: 0.85
- fold changes relative to vehicle control ([6]; protein DCD, HeLa): 0.86
- fold changes relative to vehicle control ([7]; HeLa, protein ACAD8): 0.75
- fold changes relative to vehicle control ([8]; HeLa, protein KHSRP): 0.96
- fold changes relative to vehicle control ([9]; protein PSMD2, HeLa): 1.01

Compound: NCCCNc1ccc(C(=O)NC(CCC(=O)O)C(=O)O)cc1 (stereo not drawn) [compound 7]
- fold changes relative to vehicle control ([1]; protein GART, HeLa): 1.14
- fold changes relative to vehicle control ([2]; HeLa, protein MYH9 (MYOSIN-9)): 0.9
- fold changes relative to vehicle control [3]: 1.22
- fold changes relative to vehicle control ([4]; protein PSMC4, HeLa): 0.98
- fold changes relative to vehicle control [5, 10]: 0.87
- fold changes relative to vehicle control ([6]; protein DCD, HeLa): 1.23
- fold changes relative to vehicle control ([7]; HeLa, protein ACAD8): 0.77
- fold changes relative to vehicle control ([8]; HeLa, protein KHSRP): 0.95
- fold changes relative to vehicle control ([9]; protein PSMD2, HeLa): 0.99
